Test: mn = molality of the nth substance listed, in mol/kg
Settings: 101 kPa, Liquid; for viscosity: Capillary tube (Ostwald / Ubbelohde) method

[Cl-].[Li+] [lithium chloride] + O
Settings | mass density, 288.15 K [kg/m3] | mass density, 298.15 K [kg/m3] | mass density, 308.15 K [kg/m3] | mass density, 318.15 K [kg/m3] | viscosity, 288.15 K [mPa·s] | viscosity, 298.15 K [mPa·s] | viscosity, 308.15 K [mPa·s] | viscosity, 318.15 K [mPa·s]
m1 = 0.5 | 1012.05 | 1009.46 | 1006.13 | 1002.07 | 1.212 | 0.94 | 0.76 | 0.629
m1 = 1 | 1023.76 | 1020.94 | – | 1012.4 | 1.288 | 1.002 | 0.802 | 0.661
m1 = 2 | 1045.1 | 1041.17 | 1036.24 | 1031.32 | 1.444 | 1.112 | 0.882 | 0.724
m1 = 3 | 1062.67 | 1057.69 | 1051.58 | 1047.47 | 1.586 | 1.229 | 0.962 | 0.785
